Data set [1] in a line: Preclinical pulmonary administration of sumatriptan, irritancy to the airways. It counts as in vivo.
The conditions of data set [2]: intranasal route (Duquesnoy et al 1998); cited from earlier work.
The nature of data set [3]: Solubility in ethanol-based HFA 134a pMDI formulations. It counts as physicochemical.

Molecules are shown by their SMILES.

On to `CNS(=O)(=O)Cc1ccc2[nH]cc(CCN(C)C)c2c1` [sumatriptan], for which the respiratory changes entry in data set [1] (1.9 mg/kg) is given as “not of degenerative nature”; in data set [1] (9 mg/kg), “degeneration occurred”. Also, in data set [2], the “coefficient of variation for Tmax” value was 62.8%.
As for `CNS(=O)(=O)Cc1ccc2[nH]cc(CCN(C)C)c2c1` [sumatriptan succinate], the solubility entry in data set [3] is recorded as “low solubility”.

Source of the values: patent publication US20110077272A1, “PULMONARY FORMULATIONS OF TRIPTANS” (Vectura Limited, priority 2008, published 2011).
